Biological target: T1, Human BCL6 protein (N-terminal HiBiT tagged BCL6 in HT1080 cells) (Homo sapiens, UniProt P41182+Q96SW2)
T1 construct: Human BCL6 protein coding open reading frame; expressed in transfected cells; host or cells: HT1080 (ATCC CCL-121), stably transduced with lentivirus pLV-UBC-N-HiBiT-BCL6-PGK-puro
Assay: HiBiT based BCL6 degradation assay
Assay type: cell-based
Settings: HT1080 cells expressing N-terminal HiBiT tagged BCL6; 5 hours incubation; BCL6 degradation normalized with DMSO control
How it was run: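 HT1080 cells stably expressing N-terminal HiBiT-BCL6 were treated with compound dilution series for 5 h at 37° C. in RPMI 1640 with 10% FBS. HiBiT lytic luminescence read after 15 min; degradation normalized to DMSO, with curves fitted by four-parameter logistic model.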

Which “Ymin (5 hr)” value does the source give for `CNC(=O)COc1cc2cc(Nc3nc(NCc4ccc(CNc5ccc6c(C7CCC(=O)NC7=O)nn(C)c6c5)cc4)ncc3Cl)ccc2n(C)c1=O` (stereo not drawn) [Compound 315, 2-((6-((5-chloro-2-((4-(((3-(2,6-dioxopiperidin-3-yl)-1-methyl-1H-indazol-6-yl)amino)methyl)benzyl)amino)pyrimidin-4-yl)amino)-1-methyl-2-oxo-1,2-dihydroquinolin-3-yl)oxy)-N-methylacetamide] here?
Its value is “++ (50% < Ymin ≤ 70%)”.

With `CNC(=O)COc1cc2cc(Nc3nc(N4CCC(OC5CCN(c6cccc7c(C8CCC(=O)NC8=O)nn(C)c67)CC5)CC4)ncc3Cl)ccc2n(C)c1=O` (stereo not drawn) [Compound 316, 2-((6-((5-chloro-2-(4-((1-(3-(2,6-dioxopiperidin-3-yl)-1-methyl-1H-indazol-7-yl)piperidin-4-yl)oxy)piperidin-1-yl)pyrimidin-4-yl)amino)-1-methyl-2-oxo-1,2-dihydroquinolin-3-yl)oxy)-N-methylacetamide] as the compound, how does the “Ymin (5 hr)” value read?
Its value is “++++ (Ymin ≤ 25%)”.

How did the “Ymin (5 hr)” value turn out when `CNC(=O)COc1cc2cc(Nc3nc(N4CCO[C@H](COc5ccc6c(C7CCC(=O)NC7=O)nn(C)c6c5)C4)ncc3Cl)ccc2n(C)c1=O` (stereo partly drawn) [Compound 317a, 2-((6-((5-chloro-2-((2S)-2-(((3-(2,6-dioxopiperidin-3-yl)-1-methyl-1H-indazol-6-yl)oxy)methyl)morpholino)pyrimidin-4-yl)amino)-1-methyl-2-oxo-1,2-dihydroquinolin-3-yl)oxy)-N-methylacetamide] was run?
The value was “+++ (25% < Ymin ≤ 50%)”.

`CNC(=O)COc1cc2cc(Nc3nc(NCc4ccc(CNc5cccc6c(C7CCC(=O)NC7=O)nn(C)c56)cc4)ncc3Cl)ccc2n(C)c1=O` (stereo not drawn) [Compound 318, 2-((6-((5-chloro-2-((4-(((3-(2,6-dioxopiperidin-3-yl)-1-methyl-1H-indazol-7-yl)amino)methyl)benzyl)amino)pyrimidin-4-yl)amino)-1-methyl-2-oxo-1,2-dihydroquinolin-3-yl)oxy)-N-methylacetamide] was tested. Which “Ymin (5 hr)” value did it give?
The value was “++ (50% < Ymin ≤ 70%)”.

Which “Ymin (5 hr)” value does the source give for `CNC(=O)COc1cc2cc(Nc3nc(N4CCC(CCCCOc5ccc6c(C7CCC(=O)NC7=O)nn(C)c6c5)CC4)ncc3Cl)ccc2n(C)c1=O` (stereo not drawn) [Compound 319, 2-((6-((5-chloro-2-(4-(4-((3-(2,6-dioxopiperidin-3-yl)-1-methyl-1H-indazol-6-yl)oxy)butyl)piperidin-1-yl)pyrimidin-4-yl)amino)-1-methyl-2-oxo-1,2-dihydroquinolin-3-yl)oxy)-N-methylacetamide] here?
Its value is “++ (50% < Ymin ≤ 70%)”.

How did the “Ymin (5 hr)” value turn out when `CNC(=O)COc1cc2cc(Nc3nc(N4CCC(CC5CCN(c6cccc7c(C8CCC(=O)NC8=O)nn(C)c67)C5)CC4)ncc3Cl)ccc2n(C)c1=O` (stereo not drawn) [Compound 320, 2-((6-((5-chloro-2-(4-((1-(3-(2,6-dioxopiperidin-3-yl)-1-methyl-1H-indazol-7-yl)pyrrolidin-3-yl)methyl)piperidin-1-yl)pyrimidin-4-yl)amino)-1-methyl-2-oxo-1,2-dihydroquinolin-3-yl)oxy)-N-methylacetamide] was run?
The value was “+++ (25% < Ymin ≤ 50%)”.

`CNC(=O)COc1cc2cc(Nc3nc(N4CCN(CC5CCN(C(=O)c6ccc7c(C8CCC(=O)NC8=O)nn(C)c7c6)CC5)CC4)ncc3Cl)ccc2n(C)c1=O` (stereo not drawn) [Compound 321, 2-((6-((5-chloro-2-(4-((1-(3-(2,6-dioxopiperidin-3-yl)-1-methyl-1H-indazole-6-carbonyl)piperidin-4-yl)methyl)piperazin-1-yl)pyrimidin-4-yl)amino)-1-methyl-2-oxo-1,2-dihydroquinolin-3-yl)oxy)-N-methylacetamide] was tested. Which “Ymin (5 hr)” value did it give?
Its value is “+++ (25% < Ymin ≤ 50%)”.

Which “Ymin (5 hr)” value does the source give for `CNC(=O)COc1cc2cc(Nc3nc(N4CCC(CN5CCN(C(=O)c6ccc7c(C8CCC(=O)NC8=O)nn(C)c7c6)CC5)CC4)ncc3Cl)ccc2n(C)c1=O` (stereo not drawn) [Compound 322, 2-((6-((5-chloro-2-(4-((4-(3-(2,6-dioxopiperidin-3-yl)-1-methyl-1H-indazole-6-carbonyl)piperazin-1-yl)methyl)piperidin-1-yl)pyrimidin-4-yl)amino)-1-methyl-2-oxo-1,2-dihydroquinolin-3-yl)oxy)-N-methylacetamide] here?
Its value is “+++ (25% < Ymin ≤ 50%)”.

`CNC(=O)COc1cc2cc(Nc3nc(N4CCN(CC5CCN(C(=O)c6cccc7c(C8CCC(=O)NC8=O)nn(C)c67)CC5)CC4)ncc3Cl)ccc2n(C)c1=O` (stereo not drawn) [Compound 323, 2-((6-((5-chloro-2-(4-((1-(3-(2,6-dioxopiperidin-3-yl)-1-methyl-1H-indazole-7-carbonyl)piperidin-4-yl)methyl)piperazin-1-yl)pyrimidin-4-yl)amino)-1-methyl-2-oxo-1,2-dihydroquinolin-3-yl)oxy)-N-methylacetamide] was tested. Which “Ymin (5 hr)” value did it give?
Its value is “+++ (25% < Ymin ≤ 50%)”.

`CNC(=O)COc1cc2cc(Nc3nc(N4CCC(CN5CCN(C(=O)c6cccc7c(C8CCC(=O)NC8=O)nn(C)c67)CC5)CC4)ncc3Cl)ccc2n(C)c1=O` (stereo not drawn) [Compound 324, 2-((6-((5-chloro-2-(4-((4-(3-(2,6-dioxopiperidin-3-yl)-1-methyl-1H-indazole-7-carbonyl)piperazin-1-yl)methyl)piperidin-1-yl)pyrimidin-4-yl)amino)-1-methyl-2-oxo-1,2-dihydroquinolin-3-yl)oxy)-N-methylacetamide] was tested. Which “Ymin (5 hr)” value did it give?
The value was “+++ (25% < Ymin ≤ 50%)”.

Which “Ymin (5 hr)” value does the source give for `CNC(=O)COc1cc2cc(Nc3nc(N4C5CCC4CN(CC4CCN(c6cccc7c(C8CCC(=O)NC8=O)nn(C)c67)CC4)C5)ncc3Cl)ccc2n(C)c1=O` (stereo not drawn) [Compound 325, 2-((6-((5-chloro-2-(3-((1-(3-(2,6-dioxopiperidin-3-yl)-1-methyl-1H-indazol-7-yl)piperidin-4-yl)methyl)-3,8-diazabicyclo[3.2.1]octan-8-yl)pyrimidin-4-yl)amino)-1-methyl-2-oxo-1,2-dihydroquinolin-3-yl)oxy)-N-methylacetamide] here?
The value was “+++ (25% < Ymin ≤ 50%)”.

How did the “Ymin (5 hr)” value turn out when `CNC(=O)COc1cc2cc(Nc3nc(N4CCC5CN(c6cccc7c(C8CCC(=O)NC8=O)nn(C)c67)CC5C4)ncc3Cl)ccc2n(C)c1=O` (stereo not drawn) [Compound 326, 2-((6-((5-chloro-2-(2-(3-(2,6-dioxopiperidin-3-yl)-1-methyl-1H-indazol-7-yl)octahydro-5H-pyrrolo[3,4-c]pyridin-5-yl)pyrimidin-4-yl)amino)-1-methyl-2-oxo-1,2-dihydroquinolin-3-yl)oxy)-N-methylacetamide] was run?
Its value is “+++ (25% < Ymin ≤ 50%)”.

Which “Ymin (5 hr)” value does the source give for `CNC(=O)COc1cc2cc(Nc3nc(N4CCC(C(=O)N5CCN(c6cccc7c(C8CCC(=O)NC8=O)nn(C)c67)CC5)CC4)ncc3Cl)ccc2n(C)c1=O` (stereo not drawn) [Compound 327, 2-((6-((5-chloro-2-(4-(4-(3-(2,6-dioxopiperidin-3-yl)-1-methyl-1H-indazol-7-yl)piperazine-1-carbonyl)piperidin-1-yl)pyrimidin-4-yl)amino)-1-methyl-2-oxo-1,2-dihydroquinolin-3-yl)oxy)-N-methylacetamide] here?
The value was “++++ (Ymin ≤ 25%)”.

How did the “Ymin (5 hr)” value turn out when `CNC(=O)COc1cc2cc(Nc3nc(N4CCC(C(=O)N5CCN(c6ccc7c(C8CCC(=O)NC8=O)nn(C)c7c6)CC5)CC4)ncc3Cl)ccc2n(C)c1=O` (stereo not drawn) [Compound 328, 2-((6-((5-chloro-2-(4-(4-(3-(2,6-dioxopiperidin-3-yl)-1-methyl-1H-indazol-6-yl)piperazine-1-carbonyl)piperidin-1-yl)pyrimidin-4-yl)amino)-1-methyl-2-oxo-1,2-dihydroquinolin-3-yl)oxy)-N-methylacetamide] was run?
The value was “++++ (Ymin ≤ 25%)”.

With `CNC(=O)COc1cc2cc(Nc3nc(N4CCCC5(CN(c6ccc7c(C8CCC(=O)NC8=O)nn(C)c7c6)C5)C4)ncc3Cl)ccc2n(C)c1=O` (stereo not drawn) [Compound 329, 2-((6-((5-chloro-2-(2-(3-(2,6-dioxopiperidin-3-yl)-1-methyl-1H-indazol-6-yl)-2,6-diazaspiro[3.5]nonan-6-yl)pyrimidin-4-yl)amino)-1-methyl-2-oxo-1,2-dihydroquinolin-3-yl)oxy)-N-methylacetamide] as the compound, how does the “Ymin (5 hr)” value read?
The value was “++ (50% < Ymin ≤ 70%)”.

How did the “Ymin (5 hr)” value turn out when `CNC(=O)COc1cc2cc(Nc3nc(N4CCCC5(CCCN(c6cccc7c(C8CCC(=O)NC8=O)nn(C)c67)C5)C4)ncc3Cl)ccc2n(C)c1=O` (stereo not drawn) [Compound 330, 2-((6-((5-chloro-2-(8-(3-(2,6-dioxopiperidin-3-yl)-1-methyl-1H-indazol-7-yl)-2,8-diazaspiro[5.5]undecan-2-yl)pyrimidin-4-yl)amino)-1-methyl-2-oxo-1,2-dihydroquinolin-3-yl)oxy)-N-methylacetamide] was run?
Its value is “++ (50% < Ymin ≤ 70%)”.

Which “Ymin (5 hr)” value does the source give for `CNC(=O)COc1cc2cc(Nc3nc(N4CCCC5(CCN(c6ccc7c(C8CCC(=O)NC8=O)nn(C)c7c6)C5)C4)ncc3Cl)ccc2n(C)c1=O` (stereo not drawn) [Compound 331, 2-((6-((5-chloro-2-(2-(3-(2,6-dioxopiperidin-3-yl)-1-methyl-1H-indazol-6-yl)-2,7-diazaspiro[4.5]decan-7-yl)pyrimidin-4-yl)amino)-1-methyl-2-oxo-1,2-dihydroquinolin-3-yl)oxy)-N-methylacetamide] here?
The value was “+++ (25% < Ymin ≤ 50%)”.

Which “Ymin (5 hr)” value does the source give for `CNC(=O)COc1cc2cc(Nc3nc(N4CCC(CC5CCN(c6ccc7c(C8CCC(=O)NC8=O)nn(C)c7c6)C5)CC4)ncc3Cl)ccc2n(C)c1=O` (stereo not drawn) [Compound 332, 2-((6-((5-chloro-2-(4-((1-(3-(2,6-dioxopiperidin-3-yl)-1-methyl-1H-indazol-6-yl)pyrrolidin-3-yl)methyl)piperidin-1-yl)pyrimidin-4-yl)amino)-1-methyl-2-oxo-1,2-dihydroquinolin-3-yl)oxy)-N-methylacetamide] here?
The value was “+++ (25% < Ymin ≤ 50%)”.

— patent US20250270191A1, “QUINOLONE BCL6 BIFUNCTIONAL DEGRADERS” (Treeline Biosciences, Inc., priority 2022, published 2025)
